Assay results from patent US20050250837A1, “Use of C-Raf inhibitors for the treatment of neurodegenerative diseases” (priority 2002, published 2005).

Tests used:
CDK1/cyclinB = CDK1/cyclinB (Homo sapiens, UniProt P06493); experiment: In vitro kinase assay, purified kinase (Upstate Kinase Profiling); format: biochemical; note: ATP 10 µM
Excerpt: (§1) (Lackey et al., 2000). […] A number of reports have implicated JNKs in the promotion of neuronal apoptosis both in vivo and in cell culture systems (Coffey et al., 2002). Although all three JNK proteins are expressed in neurons, the phosphorylation of c-jun is believed to be mediated by JNK2 or JNK3 (Bruckner et al., 2001; Bruckner and Estus, 2002; Coffey et al., 2002). […] In apoptotic neurons, JNK activation is mediated primarily by MKK7 (Eilers et al., 1998; Trotter et al., 2002).
(§2) In general, in vitro kinase assays were performed using purified kinase and synthetic substrates under standard conditions using the Kinase Profiling service of Upstate Biotechnology. Briefly, for each assay 5-10 mU of purified kinase was used. […] Kinase activity was quantified by measuring ^33P incorporation by spotting an aliquot on P30 filters, washing in 50 mM phosphoric acid and scintillation counting. The buffer composition for C-Raf, JNK1, JNK2, JNK3, MEK1, MKK6, MKK7 was 50 mM Tris pH7.5, 0.1 mM EGTA, 10 mM Mg acetate and [γ-^33P-ATP]. The peptide substrates used were as follows: For C-Raf, 0.66 mg/ml MBP; for cdks, 0.1 mg/ml histone H1; for JNKs, 3 uM ATF2; for MEK1, 1 uM MAPK2; for MKK6, 1 uM of SAPK2a and for MKK7, 2 uM JNK1α.

CDK2/cyclinA = CDK2/cyclinA (Homo sapiens, UniProt P24941); experiment: as above; format: biochemical; note: ATP 10 µM
Excerpt: as §1, §2

CDK2/cyclinE = CDK2/cyclinE (Homo sapiens, UniProt P24941); experiment: as above; format: biochemical; note: ATP 10 µM
Excerpt: as §1, §2

CDK5/p35 = CDK5/p35 (Homo sapiens, UniProt Q00535); experiment: as above; format: biochemical; note: ATP 10 µM
Sequence of CDK5/p35 (Q00535 whole entry, species assumed): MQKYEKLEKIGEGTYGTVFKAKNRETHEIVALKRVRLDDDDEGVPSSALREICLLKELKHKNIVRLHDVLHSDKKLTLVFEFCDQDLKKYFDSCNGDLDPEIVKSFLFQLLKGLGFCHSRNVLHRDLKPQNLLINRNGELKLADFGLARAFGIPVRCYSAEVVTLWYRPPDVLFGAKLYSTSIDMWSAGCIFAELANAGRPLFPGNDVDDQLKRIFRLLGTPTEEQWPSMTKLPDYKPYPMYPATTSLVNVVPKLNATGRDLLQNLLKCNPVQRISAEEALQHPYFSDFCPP
Sequence of CDK5/p35 (Q15078 whole entry partner, species assumed): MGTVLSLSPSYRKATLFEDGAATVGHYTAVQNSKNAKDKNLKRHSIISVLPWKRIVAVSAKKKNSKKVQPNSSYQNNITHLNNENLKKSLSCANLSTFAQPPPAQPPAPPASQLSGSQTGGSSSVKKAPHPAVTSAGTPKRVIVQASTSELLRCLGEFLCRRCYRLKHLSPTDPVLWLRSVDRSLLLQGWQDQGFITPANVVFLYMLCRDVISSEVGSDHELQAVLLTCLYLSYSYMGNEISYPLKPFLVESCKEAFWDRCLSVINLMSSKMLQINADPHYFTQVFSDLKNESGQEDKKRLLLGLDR
Excerpt: as §1, §2

GSK3β = GSK3β (Homo sapiens, UniProt P49841); experiment: as above; format: biochemical; note: ATP 10 µM
Sequence of GSK3β (P49841 whole entry, species assumed): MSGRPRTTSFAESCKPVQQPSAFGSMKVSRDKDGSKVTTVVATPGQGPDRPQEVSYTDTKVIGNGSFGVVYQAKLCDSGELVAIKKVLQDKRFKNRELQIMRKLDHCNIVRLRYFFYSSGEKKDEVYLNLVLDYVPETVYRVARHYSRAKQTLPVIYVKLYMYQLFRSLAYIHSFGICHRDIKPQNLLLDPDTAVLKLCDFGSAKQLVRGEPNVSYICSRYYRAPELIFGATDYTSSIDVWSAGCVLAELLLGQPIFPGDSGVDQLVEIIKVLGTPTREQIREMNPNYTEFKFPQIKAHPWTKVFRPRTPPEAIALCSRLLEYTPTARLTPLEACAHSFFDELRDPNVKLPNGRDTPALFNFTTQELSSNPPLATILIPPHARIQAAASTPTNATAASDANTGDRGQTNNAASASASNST
Excerpt: as §1, §2

JNK1 = JNK1 (Homo sapiens, UniProt P45983); experiment: as above; format: biochemical; note: ATP 10 µM
Sequence of JNK1 (P45983 whole entry, species assumed): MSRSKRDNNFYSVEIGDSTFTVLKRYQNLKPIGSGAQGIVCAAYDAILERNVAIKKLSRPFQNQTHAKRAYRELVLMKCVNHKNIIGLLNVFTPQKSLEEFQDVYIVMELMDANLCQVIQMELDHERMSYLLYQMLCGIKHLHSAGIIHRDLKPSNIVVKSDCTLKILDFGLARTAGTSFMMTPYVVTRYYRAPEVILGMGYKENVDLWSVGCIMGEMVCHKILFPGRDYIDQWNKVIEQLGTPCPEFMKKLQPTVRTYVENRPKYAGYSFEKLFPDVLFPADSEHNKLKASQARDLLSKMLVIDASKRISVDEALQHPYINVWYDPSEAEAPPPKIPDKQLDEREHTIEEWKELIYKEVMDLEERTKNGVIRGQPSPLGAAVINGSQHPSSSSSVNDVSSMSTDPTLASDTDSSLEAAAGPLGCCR
Excerpt: as §1, §2

JNK2 = JNK2 (Homo sapiens, UniProt P45984); experiment: as above; format: biochemical; note: ATP 10 µM
Sequence of JNK2 (P45984 whole entry, species assumed): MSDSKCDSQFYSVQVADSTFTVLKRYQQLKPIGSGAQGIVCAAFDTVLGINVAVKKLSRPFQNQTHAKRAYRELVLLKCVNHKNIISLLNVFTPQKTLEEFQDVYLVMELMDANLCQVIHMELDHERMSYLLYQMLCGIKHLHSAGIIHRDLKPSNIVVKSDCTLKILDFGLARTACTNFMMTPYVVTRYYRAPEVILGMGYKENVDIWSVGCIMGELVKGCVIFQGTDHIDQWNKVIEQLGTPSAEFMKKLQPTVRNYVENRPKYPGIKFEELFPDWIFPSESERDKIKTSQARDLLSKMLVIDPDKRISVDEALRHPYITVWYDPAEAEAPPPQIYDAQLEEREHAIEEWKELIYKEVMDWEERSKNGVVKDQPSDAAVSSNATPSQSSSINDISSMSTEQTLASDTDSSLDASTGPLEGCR
Excerpt: as §1, §2

JNK3 = experiment: as above; format: biochemical; details: 1 uM GW5074, ATP 10 uM; percentage of control without GW5074, mean +/- SD
Excerpt: as §1, §2

MEK1 = MEK1 (Homo sapiens, UniProt Q02750); experiment: as above; format: biochemical; note: ATP 10 µM
Sequence of MEK1 (Q02750 whole entry, species assumed): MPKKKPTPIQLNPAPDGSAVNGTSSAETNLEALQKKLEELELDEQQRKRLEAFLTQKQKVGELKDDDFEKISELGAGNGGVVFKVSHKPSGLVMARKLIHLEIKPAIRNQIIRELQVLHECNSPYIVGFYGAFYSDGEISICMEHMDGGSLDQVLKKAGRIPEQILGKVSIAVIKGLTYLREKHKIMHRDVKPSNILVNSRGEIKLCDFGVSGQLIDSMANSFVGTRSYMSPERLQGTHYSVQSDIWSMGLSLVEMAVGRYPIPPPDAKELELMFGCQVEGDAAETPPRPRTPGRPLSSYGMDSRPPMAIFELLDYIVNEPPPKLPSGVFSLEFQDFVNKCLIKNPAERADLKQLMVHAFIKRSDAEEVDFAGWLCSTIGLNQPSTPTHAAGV
Excerpt: as §1, §2

MKK6 = MKK6 (Homo sapiens, UniProt P52564); experiment: as above; format: biochemical; note: ATP 10 µM
Sequence of MKK6 (P52564 whole entry, species assumed): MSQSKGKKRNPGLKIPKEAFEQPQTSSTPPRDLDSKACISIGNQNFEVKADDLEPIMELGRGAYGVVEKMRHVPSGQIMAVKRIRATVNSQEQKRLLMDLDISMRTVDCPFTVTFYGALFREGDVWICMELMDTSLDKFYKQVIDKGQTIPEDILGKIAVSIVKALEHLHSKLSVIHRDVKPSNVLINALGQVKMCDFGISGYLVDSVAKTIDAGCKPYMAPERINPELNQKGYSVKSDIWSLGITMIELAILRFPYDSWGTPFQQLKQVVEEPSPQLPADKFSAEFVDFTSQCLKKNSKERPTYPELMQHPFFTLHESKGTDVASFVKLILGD
Excerpt: as §1, §2

MKK7 = MKK7 (Homo sapiens, UniProt O14733); experiment: as above; format: biochemical; note: ATP 10 µM
Sequence of MKK7 (O14733 whole entry, species assumed): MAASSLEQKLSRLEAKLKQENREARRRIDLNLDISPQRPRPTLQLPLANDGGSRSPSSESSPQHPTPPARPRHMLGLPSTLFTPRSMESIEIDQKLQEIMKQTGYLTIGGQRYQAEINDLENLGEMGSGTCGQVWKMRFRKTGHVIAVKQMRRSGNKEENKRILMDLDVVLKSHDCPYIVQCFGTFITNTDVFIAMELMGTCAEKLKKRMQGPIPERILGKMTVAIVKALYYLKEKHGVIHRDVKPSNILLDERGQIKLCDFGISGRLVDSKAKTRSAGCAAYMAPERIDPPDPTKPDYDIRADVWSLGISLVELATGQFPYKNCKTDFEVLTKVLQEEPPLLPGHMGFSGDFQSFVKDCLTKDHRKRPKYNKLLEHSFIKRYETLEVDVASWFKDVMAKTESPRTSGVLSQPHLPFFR
Excerpt: as §1, §2

B-Raf = experiment: Activity of B-Raf immunoprecipitated from neuronal lysates, MEK substrate; format: cell-based, rat; details: LK + 1 uM GW5074, 1 hour
Protocol: The reaction mixture was subjected to Western analysis using a phospho-MEK antibody as probe.
Activities of endogenous C-Raf and B-Raf activity was assayed by measuring the ability of kinase immunoprecipitated from neuronal lysates to phosphorylate a kinase-dead recombinant GST-MEK1 substrate. Following immunoprecipitation and multiple washes with lysis buffer, lysis buffer supplemented with 350 mM NaCl, and kinase buffer (25 mM HEPES pH 7.4 and 10 mM MgCl2), in vitro kinase assays are performed on the immune complexes using purified recombinant GST-MEK1 K97M protein as a substrate in kinase buffer supplemented with 85 μM ATP for 35 minutes at 30° C. Reactions are stopped by the addition of 3×SDS sample buffer and boiled for five minutes. Proteins are resolved by SDS-PAGE and subjected to Western blotting. The level of phosphorylated MEK is detected by a phospho-MEK antibody.

cdk1 = cdk1 (Homo sapiens, UniProt P06493); details: Lackey et al., 2000; cited from earlier work
Sequence of cdk1 (P06493 whole entry, species assumed): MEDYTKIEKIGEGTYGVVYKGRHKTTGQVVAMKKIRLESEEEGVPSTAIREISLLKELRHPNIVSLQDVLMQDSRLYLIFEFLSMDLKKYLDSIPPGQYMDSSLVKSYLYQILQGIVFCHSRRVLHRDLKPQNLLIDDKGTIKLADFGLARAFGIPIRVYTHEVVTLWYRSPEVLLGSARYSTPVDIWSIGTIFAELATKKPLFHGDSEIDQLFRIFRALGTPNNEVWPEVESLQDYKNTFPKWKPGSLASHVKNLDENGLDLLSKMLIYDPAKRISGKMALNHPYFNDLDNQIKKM
Sequence of cdk1 (P14635 whole entry partner, species assumed): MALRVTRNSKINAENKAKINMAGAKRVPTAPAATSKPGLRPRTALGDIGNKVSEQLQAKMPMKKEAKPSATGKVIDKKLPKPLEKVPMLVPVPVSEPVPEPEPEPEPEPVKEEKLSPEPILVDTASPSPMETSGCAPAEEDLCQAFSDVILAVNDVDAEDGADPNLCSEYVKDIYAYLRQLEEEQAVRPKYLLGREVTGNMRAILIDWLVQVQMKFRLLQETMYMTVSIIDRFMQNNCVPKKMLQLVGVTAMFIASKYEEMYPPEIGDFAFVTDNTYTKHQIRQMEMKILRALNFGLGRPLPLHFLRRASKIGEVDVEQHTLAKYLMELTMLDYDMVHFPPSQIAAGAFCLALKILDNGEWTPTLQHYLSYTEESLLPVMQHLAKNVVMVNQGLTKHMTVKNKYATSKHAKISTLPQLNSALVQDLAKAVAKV

VEGFR2 = VEGFR2 (Homo sapiens, UniProt P35968); details: Lackey et al., 2000; cited from earlier work

Sequence of CDK1/cyclinB (P06493 whole entry, species assumed): as the sequence (P06493 whole entry, species assumed) above
Sequence of CDK1/cyclinB (P14635 whole entry partner, species assumed): as the sequence (P14635 whole entry partner, species assumed) above

O=C1Nc2ccc(I)cc2C1=Cc1cc(Br)c(O)c(Br)c1 [GW5074, 5-Iodo-3-[(3,5-dibromo-4-hydroxyphenyl)methylene]-2-indolinone]
activity at 1 µM (CDK1/cyclinB): 90 ± 12% | activity at 1 µM (CDK2/cyclinA): 99% | activity at 1 µM (CDK2/cyclinE): 100 ± 5% | activity at 1 µM (CDK5/p35): 94 ± 2% | activity at 1 µM (GSK3β): 81 ± 6% | activity at 1 µM (JNK1): 94 ± 3% | activity at 1 µM (JNK2): 91 ± 4% | % ACTIVITY JNK3 (JNK3): 89 ± 9% | activity at 1 µM (MEK1): 94 ± 4% | activity at 1 µM (MKK6): 91 ± 4% | activity at 1 µM (MKK7): 104 ± 8% | B-Raf activity in neurons (B-Raf): elevated further | effect on activity of cdk1 (cdk1): no effect | effect on activity of VEGFR2 (VEGFR2): no effect
